Assay results published in patent publication US10842892B2, “Methods and apparatus for synthesizing imaging agents, and intermediates thereof” (Lantheus Medical Imaging, Inc., priority 2010, dated 2020).
“And” between values parts separate entries of the source, which are not always exact repeats. Equal entries are not always repeated.

Tested on: healthy adults
Assay: whole-organ biodistribution and residence times by whole-body PET
Assay type: in vivo, human
Conditions: for Mean Percent Administered Dose, Brain / Mean Percent Administered Dose, GI Stomach Wall / Mean Percent Administered Dose, Heart Wall / Mean Percent Administered Dose, Kidneys / Mean Percent Administered Dose, Liver / Mean Percent Administered Dose, Marrow (lumbar) / Mean Percent Administered Dose, Salivary / Mean Percent Administered Dose, Spleen / Mean Percent Administered Dose, Thyroid / Mean Percent Administered Dose, Urinary Bladder / Mean Percent Administered Dose, Whole Body: N = 12, decay corrected
Protocol: Whole-body PET imaging from head to mid thigh was performed at protocol-specified time-windows.
The attenuation corrected transverse image data slice planes were combined into a single three-dimensional image matrix for each subject and each time point using custom software. These images were then divided into 6 image sets (“anterior”, “posterior”, “salivary”, “thyroid”, “source”, and “full”) of combined coronal plane image data for each subject at each time point, grouping organs with similar anterior to posterior depths. This was done to optimize the ROI creation, and minimize background contribution to the organs contained in each combined coronal plane image. The “anterior” images contained stomach wall, heart wall, and urinary bladder. The “posterior” images contained kidneys, lumbar spine, and spleen (when visible). The “salivary” images contained the salivary glands (parotid and submandibular). The “thyroid” images contained the thyroid. The “full” images combined all of the coronal image planes that contained subject image data and was used for quantification of the brain and liver. The “source” images contained the calibration source.
Absolute radioactivity was determined by normalizing ROI sums by a calibration factor derived from the calibration source. Region counts were also adjusted for activity containing underlying and overlying tissue that was not part of the organ or tissue being quantified by utilization of background regions of interest. Total body region counts were also corrected for off body background counts. Appropriate normalization of region sizes for organ and adjacent regions were made. Unobstructed regions of organs with significant overlap from other activity containing organs were also employed where necessary. In order to estimate the activity in the lower legs (which were not imaged), a region of interest on the upper thigh was utilized. Activities were also normalized where necessary to account for 100% of the injected activity, and to insure conservative (slight over-estimates) determination of absorbed dose.
Kinetic data for brain, heart wall, kidneys, liver, red marrow (lumbar spine regions were utilized), salivary glands, spleen, stomach wall, thyroid, and urinary bladder for the subjects in the study were determined using image quantification methodology. Absolute activity was converted to fractional dose by dividing by the total activity administered. Organ and tissue data were fit using non-linear least-squares regression with sums of exponentials of the form shown in Equation 1, where f and λ are the model parameters that are determined in the fitting process, Fij(t) is the fraction of the total injected activity, t is the time post injection, i is the i^th ROI, j is the j^th subject, and k is the k^th exponential term. Between one and four exponential terms were employed, as appropriate.
The regression was performed using custom software that determines initial parameter values based on the temporal variation of the kinetic data, and the use of pre-tabulated estimates for various time activity scenarios as selected by the user. […] Remainder of Body residence times were determined by subtraction of appropriate organ residence times from whole body residence times. Urinary bladder residence times were determined using the parameters determined by fitting the whole body activity data with a urinary bladder model as implemented in the OLINDA/EXM software with 3.5 hour bladder voiding interval. Red marrow residence time was determined based on a region of interest drawn on a portion of the lumbar spine. The lumbar spine was assumed to contain 16.1% (International Commission on Radiological Protection (ICRP) Publication 23, Report of the Task Group on Reference Man. Pergamon Press. 1975, page 125) of the total red marrow.

[1] = N = 12, Void Interval = 3.5 hours
[2] = whole body coronal images, representative subject

## CC(C)(C)n1ncc(OCc2ccc(COCC[18F])cc2)c(Cl)c1=O [imaging agent 1, 2-t-butyl-4-chloro-5-[4-(2-(^18F)fluoroethoxymethyl)-benzyloxy]-2H-pyridazin-3-1]
0.17 hr post-dose
  Mean Percent Administered Dose, Brain: 8.3%
  Mean Percent Administered Dose, GI Stomach Wall: 2.5%
  Mean Percent Administered Dose, Heart Wall: 3.1%
  Mean Percent Administered Dose, Kidneys: 9.4%
  Mean Percent Administered Dose, Liver: 19.1%
  Mean Percent Administered Dose, Marrow (lumbar): 0.3%
  Mean Percent Administered Dose, Salivary: 0.6%
  Mean Percent Administered Dose, Spleen: 0.9%
  Mean Percent Administered Dose, Thyroid: 0.1%
  Mean Percent Administered Dose, Urinary Bladder: 0.3%
  Mean Percent Administered Dose, Whole Body: 100.0%
0.50 hr post-dose
  Mean Percent Administered Dose, Brain: 7.9%
  Mean Percent Administered Dose, GI Stomach Wall: 2.4%
  Mean Percent Administered Dose, Heart Wall: 3.2%
  Mean Percent Administered Dose, Kidneys: 6.5%
  Mean Percent Administered Dose, Liver: 18.0%
  Mean Percent Administered Dose, Marrow (lumbar): 0.3%
  Mean Percent Administered Dose, Salivary: 0.7%
  Mean Percent Administered Dose, Spleen: 0.6%
  Mean Percent Administered Dose, Thyroid: 0.1%
  Mean Percent Administered Dose, Urinary Bladder: 0.2%
  Mean Percent Administered Dose, Whole Body: 99.8%
0.83 hr post-dose
  Mean Percent Administered Dose, Brain: 7.3%
  Mean Percent Administered Dose, GI Stomach Wall: 2.2%
  Mean Percent Administered Dose, Heart Wall: 3.4%
  Mean Percent Administered Dose, Kidneys: 4.9%
  Mean Percent Administered Dose, Liver: 16.4%
  Mean Percent Administered Dose, Marrow (lumbar): 0.3%
  Mean Percent Administered Dose, Salivary: 0.6%
  Mean Percent Administered Dose, Spleen: 0.4%
  Mean Percent Administered Dose, Thyroid: 0.1%
  Mean Percent Administered Dose, Urinary Bladder: 0.3%
  Mean Percent Administered Dose, Whole Body: 99.7%
2.0 hr post-dose
  Mean Percent Administered Dose, Brain: 4.7%
  Mean Percent Administered Dose, GI Stomach Wall: 0.7%
  Mean Percent Administered Dose, Heart Wall: 2.4%
  Mean Percent Administered Dose, Kidneys: 1.6%
  Mean Percent Administered Dose, Liver: 7.5%
  Mean Percent Administered Dose, Salivary: 0.5%
  Mean Percent Administered Dose, Spleen: 0.3%
  Mean Percent Administered Dose, Thyroid: 0.1%
  Mean Percent Administered Dose, Urinary Bladder: 0.9%
  Mean Percent Administered Dose, Whole Body: 98.2%
2.5 hr post-dose
  Mean Percent Administered Dose, Brain: 4.1%
  Mean Percent Administered Dose, GI Stomach Wall: 0.7%
  Mean Percent Administered Dose, Heart Wall: 2.5%
  Mean Percent Administered Dose, Kidneys: 1.6%
  Mean Percent Administered Dose, Liver: 7.0%
  Mean Percent Administered Dose, Salivary: 0.5%
  Mean Percent Administered Dose, Spleen: 0.3%
  Mean Percent Administered Dose, Thyroid: 0.1%
  Mean Percent Administered Dose, Urinary Bladder: 1.1%
  Mean Percent Administered Dose, Whole Body: 98.1%
3.83 hr post-dose
  Mean Percent Administered Dose, Brain: 3.2%
  Mean Percent Administered Dose, GI Stomach Wall: 0.6%
  Mean Percent Administered Dose, Heart Wall: 2.1%
  Mean Percent Administered Dose, Kidneys: 1.2%
  Mean Percent Administered Dose, Liver: 4.5%
  Mean Percent Administered Dose, Salivary: 0.4%
  Mean Percent Administered Dose, Spleen: 0.3%
  Mean Percent Administered Dose, Thyroid: 0.1%
  Mean Percent Administered Dose, Urinary Bladder: 1.4%
  Mean Percent Administered Dose, Whole Body: 96.8%
4.5 hr post-dose
  Mean Percent Administered Dose, Brain: 2.9%
  Mean Percent Administered Dose, GI Stomach Wall: 0.6%
  Mean Percent Administered Dose, Heart Wall: 2.1%
  Mean Percent Administered Dose, Kidneys: 1.1%
  Mean Percent Administered Dose, Liver: 4.7%
  Mean Percent Administered Dose, Salivary: 0.4%
  Mean Percent Administered Dose, Thyroid: 0.1%
  Mean Percent Administered Dose, Urinary Bladder: 1.7%
  Mean Percent Administered Dose, Whole Body: 96.9%
N = 12
  mean peak uptake, brain: approximately 8.3 % of the injected activity
  mean peak uptake, kidneys: approximately 9.4 % of the injected activity
  mean peak uptake, liver: approximately 19.1 % of the injected activity
[1]
  Residence Time, Mean, Brain: 0.14 h and 0.138 h
  Residence Time, Mean, GI Stomach Wall: 0.033 h
  Residence Time, Mean, Heart Wall: 0.0728 h
  Residence Time, Mean, Kidneys: 0.0952 h
  Residence Time, Mean, Liver: 0.28 h and 0.277 h
  Residence Time, Mean, Red Marrow: 0.0886 h
  Residence Time, Mean, Remainder of Body: 1.8 h and 1.84 h
  Residence Time, Mean, Salivary: 0.0148 h
  Residence Time, Mean, Spleen: 0.0101 h
  Residence Time, Mean, Thyroid: 0.00331 h
  Residence Time, Mean, Urinary Bladder: 0.0265 h
[2]
  high and sustained heart retention of ^18F, through time after injection: approximately 5 hours
  time of liver clearing after injection: approximately 2 hours
